Data from patent US9193719B2, “1,2,4-triazol-5-ones and analogs exhibiting anti-cancer and anti-proliferative activities” (Deciphera Pharmaceuticals, LLC, priority 2013, dated 2015).

Legend:
[1] = biological target: T1, unphosphorylated c-FMS kinase (uFMS, Seq. ID no. 1) (Homo sapiens, UniProt P07333); assay: uFMS kinase enzymatic assay (pyruvate kinase/lactate dehydrogenase coupled); assay type: biochemical; details: ATP 500 μM, rate 3 to 4 h
T1 construct: purchased Millipore
T1 sequence (P07333 538-972): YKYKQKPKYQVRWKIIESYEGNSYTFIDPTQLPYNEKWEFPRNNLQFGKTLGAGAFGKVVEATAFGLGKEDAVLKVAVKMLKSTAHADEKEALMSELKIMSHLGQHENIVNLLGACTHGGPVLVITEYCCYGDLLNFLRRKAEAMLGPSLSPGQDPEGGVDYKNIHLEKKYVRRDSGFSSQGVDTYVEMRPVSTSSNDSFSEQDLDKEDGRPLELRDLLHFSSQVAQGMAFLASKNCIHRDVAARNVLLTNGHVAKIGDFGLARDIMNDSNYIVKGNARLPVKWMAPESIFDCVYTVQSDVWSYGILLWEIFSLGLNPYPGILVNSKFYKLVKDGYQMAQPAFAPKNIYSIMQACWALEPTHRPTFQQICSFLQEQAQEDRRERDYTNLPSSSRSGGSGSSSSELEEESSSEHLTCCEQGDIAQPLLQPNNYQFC
Experimental: uFMS Kinase (Seq. ID No. 1) Assay
Activity of unphosphorylated c-FMS kinase (uFMS, Seq. ID no. 1) was determined by following the production of ADP from the FMS kinase reaction with ATP and poly E4Y as substrates through coupling with the pyruvate kinase/lactate dehydrogenase system (e.g., Schindler et al. Science (2000) 289: 1938-1942). In this assay, the oxidation of NADH (thus the decrease at A340 nm) was continuously monitored spectrophometrically. The reaction mixture (100 μL) contained FMS (purchased from Millipore) (10 nM), polyE4Y (1 mg/mL), MgCl2 (10 mM), pyruvate kinase (4 units), lactate dehydrogenase (0.7 units), phosphoenol pyruvate (1 mM), NADH (0.28 mM) and ATP (500 μM) in 90 mM Tris buffer containing 0.2% octyl-glucoside and 1% DMSO, pH 7.5. The inhibition reaction was started by mixing serial diluted test compound with the above reaction mixture. The absorption at 340 nm was monitored continuously for 4 hours at 30° C. on Synergy 2 plate reader. The reaction rate was calculated using the 3 to 4 h time frame. Percent inhibition was obtained by comparison of reaction rate with that of a control (i.e. in the absence of test compound). IC50 values were calculated from a series of percent inhibition values determined at a range of inhibitor concentrations using software routines as implemented in the GraphPad Prism software package.

[2] = tested on: osteoclast precursors; assay: Osteoclast tartrate-resistant acid phosphatase assay; assay type: cell-based; details: RANKL and M-CSF, 7-14 days, tartrate-resistant acid phosphatase activity
Experimental: Osteoclast Tartrate-Resistant Acid Phosphatase Assay
A serial dilution of test compound was dispensed into a 384-well black clear bottom plate (Nalge Nunc International, Rochester, N.Y.). Compound was diluted by the addition of DMEM media supplemented with 10% characterized fetal bovine serum (Invitrogen, Carlsbad, Calif.). Diluted compound was transferred to a 384-well black clear bottom plate. Two-thousand five hundred osteoclast precursors (Lonza, Walkersville, Md.) were added per well in growth media containing Receptor Activator of Nuclear Factor Kappa-beta ligand (RANKL) and M-CSF (R&D Systems, Minneapolis, Minn.). Plates were incubated for 7-14 days at 37 degrees Celsius, 5% CO2, and 95% humidity to allow differentiation of osteoclast precursors. At the end of the incubation period, 10 μL of supernatant from each well was transferred to a clear 384-well plate. Tartrate-resistant acid phosphatase activity in the supernatant samples was determined using an acid phosphatase assay kit (Sigma, St. Louis, Mo.). Absorbance was measured at 550 nm using a plate reader. Data was analyzed using Prism software (Graphpad, San Diego, Calif.) to calculate IC50 values.

[3] = biological target: T2, unphosphorylated c-KIT kinase (uKIT, Seq. ID no. 2) (Homo sapiens, UniProt P10721); assay: uKit kinase enzymatic assay (pyruvate kinase/lactate dehydrogenase coupled); assay type: biochemical; details: ATP 2000 μM, rate 3 to 4 h
T2 construct: uKit with N-terminal GST fusion used for screening
Experimental: uKit Kinase (Seq. ID No. 2) Assay
Activity of unphosphorylated c-KIT kinase (uKIT, Seq. ID no. 2) was determined by following the production of ADP from the KIT kinase reaction with ATP and poly E4Y as substrates through coupling with the pyruvate kinase/lactate dehydrogenase system (e.g., Schindler et al. Science (2000) 289: 1938-1942). In this assay, the oxidation of NADH (thus the decrease at A340 nm) was continuously monitored spectrophometrically. The reaction mixture (100 μl) contained unphosphorylated KIT (12 nM), polyE4Y (1 mg/mL), MgCl2 (10 mM), pyruvate kinase (4 units), lactate dehydrogenase (0.7 units), phosphoenol pyruvate (1 mM), and NADH (0.28 mM) and ATP (2000 μM) in 90 mM Tris buffer containing 0.2% octyl-glucoside and 1% DMSO, pH 7.5. The inhibition reaction was started by mixing serial diluted test compound with the above reaction mixture. The absorption at 340 nm was monitored continuously for 4 hours at 30° C. on Synergy 2 plate reader (BioTech). Reaction rates around 3 to 4 h time frame were used to calculate % inhibitions, from which IC50 values were generated.

[4] = tested on: M-NFS-60 cells; assay: M-NFS-60 cell proliferation assay (resazurin); assay type: cell-based; details: 67 h incubation
Experimental: M-NFS-60 cells (catalog #CRL-1838) were obtained from the American Type Culture Collection (ATCC, Manassas, Va.). Briefly, cells were grown in suspension in RPMI 1640 medium supplemented with 10% characterized fetal bovine serum (Invitrogen, Carlsbad, Calif.), 0.05 mM 2-mercaptoethanol, and 20 ng/mL mouse recombinant macrophage colony stimulating factor (M-CSF) at 37° C., 5% CO2, and 95% humidity. Cells were allowed to expand until reaching saturation at which point they were subcultured or harvested for assay use.
M-NFS-60 Cell Proliferation Assay
A serial dilution of test compound was dispensed into a 384-well black clear bottom plate (Corning, Corning, N.Y.). Two thousand five hundred cells were added per well in 50 μL complete growth medium. Plates were incubated for 67 h at 37° C., 5% CO2, and 95% humidity. At the end of the incubation period 10 μL of a 440 μM solution of resazurin (Sigma, St. Louis, Mo.) in PBS was added to each well and incubated for an additional 5 h at 37° C., 5% CO2, and 95% humidity. Plates were read on a Synergy2 reader (Biotek, Winooski, Vt.) using an excitation of 540 nm and an emission of 600 nm. IC50 values were calculated from a series of percent inhibition values determined at a range of inhibitor concentrations using software routines as implemented in the GraphPad Prism software package.

[5] = biological target: T3, unphosphorylated PDGFRβ kinase (uPDGFRβ, Seq. ID No. 3) (Homo sapiens, UniProt P09619); assay: uPDGFRβ kinase enzymatic assay (pyruvate kinase/lactate dehydrogenase coupled); assay type: biochemical; details: ATP 500 μM, rate 1.5 to 2.5 h
T3 construct: purchased DeCode
Experimental: Unphosphorylated PDGFRβ (uPDGFRβ) Kinase (Seq. ID No. 3) Assay
Activity of unphosphorylated PDGFRβ kinase (uPDGFRβ, Seq. ID No. 3) was determined by following the production of ADP from the kinase reaction with ATP and poly E4Y as substrates through coupling with the pyruvate kinase/lactate dehydrogenase system (e.g., Schindler et al. Science (2000) 289: 1938-1942). In this assay, the oxidation of NADH (thus the decrease at A340 nm) was continuously monitored spectrophometrically. The reaction mixture (100 μL) contained PDGFRβ (DeCode, 15.7 nM), polyE4Y (2.5 mg/mL), MgCl2 (10 mM), pyruvate kinase (4 units), lactate dehydrogenase (0.7 units), phosphoenol pyruvate (1 mM) and NADH (0.28 mM) and ATP (500 μM) in a 90 mM Tris buffer containing 0.2% octyl-glucoside and 1% DMSO, at pH 7.5. The inhibition reaction was started by mixing serial diluted test compound with the above reaction mixture. The absorption at 340 nm was monitored continuously for 4 h at 30° C. on a Polarstar Optima or Synergy 2 plate reader. The reaction rate was calculated using the 1.5 to 2.5 h time frame. Percent inhibition was obtained by comparison of reaction rate with that of a control (i.e. with no test compound). IC50 values were calculated from a series of percent inhibition values determined at a range of inhibitor concentrations using software routines as implemented in the GraphPad Prism software package.

T2 sequence (P10721 with tags, fused parts or gaps): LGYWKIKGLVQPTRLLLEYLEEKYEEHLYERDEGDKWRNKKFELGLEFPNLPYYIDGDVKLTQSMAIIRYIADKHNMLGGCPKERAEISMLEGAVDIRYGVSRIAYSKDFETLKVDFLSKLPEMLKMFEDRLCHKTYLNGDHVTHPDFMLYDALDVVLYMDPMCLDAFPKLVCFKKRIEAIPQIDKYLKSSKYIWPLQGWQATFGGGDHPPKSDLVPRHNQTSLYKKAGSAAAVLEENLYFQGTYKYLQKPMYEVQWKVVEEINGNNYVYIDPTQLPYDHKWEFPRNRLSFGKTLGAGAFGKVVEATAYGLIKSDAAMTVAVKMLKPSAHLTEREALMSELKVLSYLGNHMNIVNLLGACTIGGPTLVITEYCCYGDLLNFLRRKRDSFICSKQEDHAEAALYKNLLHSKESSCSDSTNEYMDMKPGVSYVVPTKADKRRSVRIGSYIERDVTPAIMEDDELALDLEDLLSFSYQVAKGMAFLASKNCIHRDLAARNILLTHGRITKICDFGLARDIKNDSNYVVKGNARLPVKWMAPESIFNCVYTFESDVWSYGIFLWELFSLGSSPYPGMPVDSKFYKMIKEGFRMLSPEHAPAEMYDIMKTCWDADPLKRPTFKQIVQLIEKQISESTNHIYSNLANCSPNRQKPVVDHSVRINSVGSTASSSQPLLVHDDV
T3 sequence (P09619 557-1106): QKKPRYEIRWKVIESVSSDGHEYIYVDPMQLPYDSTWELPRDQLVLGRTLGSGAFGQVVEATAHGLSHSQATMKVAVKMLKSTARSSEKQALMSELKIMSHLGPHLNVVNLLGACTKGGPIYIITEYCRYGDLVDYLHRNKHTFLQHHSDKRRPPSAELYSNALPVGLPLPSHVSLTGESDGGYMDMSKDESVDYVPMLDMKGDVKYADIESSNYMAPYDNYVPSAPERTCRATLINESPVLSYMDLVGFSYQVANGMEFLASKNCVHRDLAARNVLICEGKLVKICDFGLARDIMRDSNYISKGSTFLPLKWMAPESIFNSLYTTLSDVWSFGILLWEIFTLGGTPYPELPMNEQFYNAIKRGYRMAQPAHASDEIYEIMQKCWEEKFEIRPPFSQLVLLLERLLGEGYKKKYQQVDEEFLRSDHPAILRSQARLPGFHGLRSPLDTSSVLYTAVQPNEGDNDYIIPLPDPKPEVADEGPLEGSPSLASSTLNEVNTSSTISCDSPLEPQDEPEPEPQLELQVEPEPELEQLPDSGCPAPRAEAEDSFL

Row | IC50 [1] [nM] | IC50 [2] [nM] | IC50 [3] [nM] | IC50 [5] [nM] | Structure (SMILES) | IC50 [4] [nM]
1 | 10 to 100 | 10 to 100 | > 1000 | > 1000 | Cc1nc(-n2nc(C(C)(C)C)[nH]c2=O)ccc1Oc1ccnc(-c2cn(C)cn2)c1 [Example 23, 3-(tert-butyl)-1-(6-methyl-5-((2-(1-methyl-1H-imidazol-4-yl)pyridin-4-yl)oxy)pyridin-2-yl)-1H-1,2,4-triazol-5(4H)-one] | 100 to 1000
2 | 10 to 100 | 10 to 100 | 100 to 1000 | > 1000 | Cc1ncc(-c2cc(Oc3ccc(-n4nc(C(C)(C)C)[nH]c4=O)nc3C)ccn2)s1 [Example 12, 3-(tert-butyl)-1-(6-methyl-5-((2-(2-methylthiazol-5-yl)pyridin-4-yl)oxy)pyridin-2-yl)-1H-1,2,4-triazol-5(4H)-one] | 10 to 100
3 | 100 to 1000 | 100 to 1000 | > 1000 | > 1000 | CCc1nc(-n2nc(C(C)(C)C)[nH]c2=O)ccc1Oc1ccnc(-c2cnn(C)c2)c1 [Example 8, 3-(tert-butyl)-1-(6-ethyl-5-((2-(1-methyl-1H-pyrazol-4-yl)pyridin-4-yl)oxy)pyridin-2-yl)-1H-1,2,4-triazol-5(4H)-one] | 100 to 1000
4 | 100 to 1000 | 100 to 1000 | > 1000 | > 1000 | Cc1nc(-n2nc(C(C)(C)C)[nH]c2=O)ccc1Oc1ccnc(-c2cn[nH]c2)c1 [Example 24, 1-(5-((2-(1H-pyrazol-4-yl)pyridin-4-yl)oxy)-6-methylpyridin-2-yl)-3-(tert-butyl)-1H-1,2,4-triazol-5(4H)-one] | 100 to 1000
5 | 10 to 100 | 100 to 1000 | > 1000 | > 1000 | Cc1cn(-c2cc(Oc3ccc(-n4nc(C(C)(C)C)[nH]c4=O)nc3C)ccn2)cn1 [Example 19, 3-(tert-butyl)-1-(6-methyl-5-((2-(4-methyl-1H-imidazol-1-yl)pyridin-4-yl)oxy)pyridin-2-yl)-1H-1,2,4-triazol-5(4H)-one] | 100 to 1000
6 | 10 to 100 | 100 to 1000 | > 1000 | > 1000 | Cc1nc(-n2nc(C(C)(C)CO)[nH]c2=O)ccc1Oc1ccnc(-c2cnn(C)c2)c1 [Example 42, 3-(1-hydroxy-2-methylpropan-2-yl)-1-(6-methyl-5-((2-(1-methyl-1H-pyrazol-4-yl)pyridin-4-yl)oxy)pyridin-2-yl)-1H-1,2,4-triazol-5(4H)-one] | > 1000

More lines, now with the values behind:

Row | Structure (SMILES) | IC50 [1] [nM] | IC50 [2] [nM] | IC50 [3] [nM] | IC50 [5] [nM] | IC50 [4] [nM]
7 | Cc1nc(-n2nc(-c3ccc(F)cc3)[nH]c2=O)ccc1Oc1ccnc(-c2cnn(C)c2)c1 [Example 28, 3-(4-fluorophenyl)-1-(6-methyl-5-((2-(1-methyl-1H-pyrazol-4-yl)pyridin-4-yl)oxy)pyridin-2-yl)-1H-1,2,4-triazol-5(4H)-one] | ≤ 10 | 10 to 100 | 10 to 100 | > 1000 | 10 to 100
8 | Cc1nc(-n2nc(C(C)(C)C)[nH]c2=O)ccc1Oc1ccnc(NC(=O)C2CCN(C)CC2)c1 [Example 21, N-(4-((6(3-(tert-butyl)-5-oxo-4,5-dihydro-1H-1,2,4-triazol-1-yl)-2-methylpyridin-3-yl)oxy)pyridin-2-yl)-1-methylpiperidine-4-carboxamide] | 100 to 1000 | 100 to 1000 | > 1000 | > 1000 | > 1000
9 | COCc1nn(-c2ccc(Oc3ccnc(-c4cnn(C)c4)c3)c(C)n2)c(=O)[nH]1 [Example 17, 3-(methoxymethyl)-1-(6-methyl-5-((2-(1-methyl-1H-pyrazol-4-yl)pyridin-4-yl)oxy)pyridin-2-yl)-1H-1,2,4-triazol-5(4H)-one] | 100 to 1000 | > 1000 | > 1000 | – | > 1000
10 | Cc1nc(-n2nc(C(C)(C)C)[nH]c2=O)ccc1Oc1ccnc(NC(=O)C2CC2)c1 [Example 45, N-(4-((6-(3-(tert-butyl)-5-oxo-4,5-dihydro-1H-1,2,4-triazol-1-yl)-2-methylpyridin-3-yl)oxy)pyridin-2-yl)cyclopropanecarboxamide] | 100 to 1000 | 10 to 100 | > 1000 | > 1000 | 100 to 1000
11 | CNC(=O)c1cc(Oc2ccc(-n3nc(C(C)(C)C)[nH]c3=O)nc2)ccn1 [Example 26, 4-((6-(3-(tert-butyl)-5-oxo-4,5-dihydro-1H-1,2,4-triazol-1-yl)pyridin-3-yl)oxy)-N-methylpicolinamide] | 10 to 100 | 100 to 1000 | > 1000 | > 1000 | > 1000
